For one data set, the system named is Pimephales promelas. As to conditions: chronic/long-term; duration: 265 days; growth.
For another data set, the system named is Oryctolagus sp. As to conditions: reproduction developmental; body weight.
The next data set concerns Lepomis macrochirus. The settings on record: acute; duration: 96 hours; mortality.
A further data set relates to Daphnia magna. As to conditions: chronic/long-term; duration: 21 days; reproduction.
The subject of the next data set is Apis mellifera. The settings on record: acute; duration: 48 hours; dermal; mortality.
The subject of a further data set is Aphidius rhopalosiphi. Nature of the data set: LR50; higher = less toxic. As to conditions: not reported; mortality.
A further data set deals with Bibionidae. As to conditions: chronic/long-term; duration: 28 days.

Usually NOAEL stands for the highest tested level that showed no adverse finding. Usually LOAEL stands for the lowest tested level that showed an adverse finding.

Each structure is given as a SMILES string. In brackets after ≈: the same amount, converted by molar mass.

As for `COC(=O)C(C)Oc1ccc(Oc2ccc(Cl)cc2Cl)cc1` (racemic) [(+-)-Diclofop-methyl], the NOEC is 0.015 mg/L with Pimephales promelas, 0.081 mg/L with Daphnia magna, 25 mg/kg-day in the data set with Anas platyrhynchos (reproductive) and 20 mg/kg-day in the data set with Colinus virginianus (reproduction developmental). Also, the NOAEL with Oryctolagus sp. worked out at 0.3 mg/kg-day; with Rattus norvegicus (reproduction developmental, no effects) it was 3 mg/kg-day. In addition, the LC50 with Lepomis macrochirus was 0.15 mg/L (≈ 0.44 µM); with Anas platyrhynchos (short-term, oral, feed, mortality) it was over 1100 mg/kg-day; with Colinus virginianus (acute, oral, diet, mortality) it was over 2880 mg/kg-day; with Tagia sp. (acute, duration: 14 days, mortality), over 1000 mg/kg. Moreover, the LD50 in the data set with Colinus virginianus (acute, oral, mortality) is over 2250 mg/kg-day; in the data set on Rattus norvegicus (acute, oral, mortality) it was 512 mg/kg-day; in the data set on Apis mellifera it was over 100 µg/piece. Moreover, the NOEL with Rattus norvegicus (chronic) was 7.8 mg/kg-day. In addition, in the data set with Rattus norvegicus (chronic, duration: 2 years, histopathology: nonneoplastic), the LOAEL turned out to be 0.2 mg/kg-day. For the same compound, in the data set with Aphidius rhopalosiphi, the LR50 came to 30.1 g/ha.

For the compound `CC(Oc1ccc(Oc2ccc(Cl)cc2Cl)cc1)C(=O)O` (stereo not drawn) [Diclofop], the NOEC in the data set on Bibionidae was determined as 10 mg/L; in the data set on Tagia sp. (chronic/long-term, duration: 56 days), 100 mg/kg.

The values above are taken from EPA's ToxValDB 9.5 (doi:10.2903/j.efsa.2010.1718).
